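48-hour exposure; five concentrations; linearly interpolated endpoints. TGI denotes the concentration required for complete inhibition of growth.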
How the values were obtained:
Experiment in all cases: inhibition of tumour cell growth, NCI panel, 48 h
SNB-19 CNS = test system: SNB-19 CNS
RPMI-8226 leukemia = test system: RPMI-8226 leukemia
UACC-62 melanoma = test system: UACC-62 melanoma
HCC-2998 colon = test system: HCC-2998 colon
HT29 colon = test system: HT29 colon
LOX IMVI melanoma = test system: LOX IMVI melanoma
UACC-257 melanoma = test system: UACC-257 melanoma
OVCAR-8 ovarian = test system: OVCAR-8 ovarian
CCRF-CEM leukemia = test system: CCRF-CEM leukemia
K-562 leukemia = test system: K-562 leukemia
NCI/ADR-RES ovarian = test system: NCI/ADR-RES ovarian
SF-295 CNS = test system: SF-295 CNS
MCF7 breast = test system: MCF7 breast
UO-31 renal = test system: UO-31 renal
NCI-H460 lung = test system: NCI-H460 lung
SNB-75 CNS = test system: SNB-75 CNS
BT-549 breast = test system: BT-549 breast
HOP-92 NSCLC = test system: HOP-92 NSCLC
KM12 colon = test system: KM12 colon
SW-620 colon = test system: SW-620 colon
MDA-MB-231 breast = test system: MDA-MB-231 breast
HOP-62 NSCLC = test system: HOP-62 NSCLC
COLO 205 colon = test system: COLO 205 colon
IGROV1 ovarian = test system: IGROV1 ovarian
MDA-MB-435 = test system: MDA-MB-435
M14 melanoma = test system: M14 melanoma
SK-MEL-2 melanoma = test system: SK-MEL-2 melanoma
ACHN renal = test system: ACHN renal
SN12C renal = test system: SN12C renal
786-0 renal = test system: 786-0 renal
MALME-3M melanoma = test system: MALME-3M melanoma
T-47D breast = test system: T-47D breast
SK-MEL-28 melanoma = test system: SK-MEL-28 melanoma
RXF 393 renal = test system: RXF 393 renal
SF-268 CNS = test system: SF-268 CNS
HCT-116 colon = test system: HCT-116 colon
HS 578T breast = test system: HS 578T breast
TK-10 renal = test system: TK-10 renal
MOLT-4 leukemia = test system: MOLT-4 leukemia
EKVX NSCLC = test system: EKVX NSCLC
SK-MEL-5 melanoma = test system: SK-MEL-5 melanoma
PC-3 prostate = test system: PC-3 prostate
DU-145 prostate = test system: DU-145 prostate
NCI-H23 lung = test system: NCI-H23 lung
NCI-H522 lung = test system: NCI-H522 lung
NCI-H226 lung = test system: NCI-H226 lung
U251 CNS = test system: U251 CNS
HCT-15 colon = test system: HCT-15 colon
SR leukemia = test system: SR leukemia
CAKI-1 renal = test system: CAKI-1 renal
HL-60(TB) leukemia = test system: HL-60(TB) leukemia
SF-539 CNS = test system: SF-539 CNS
OVCAR-3 ovarian = test system: OVCAR-3 ovarian
OVCAR-5 ovarian = test system: OVCAR-5 ovarian
A549 NSCLC = test system: A549 NSCLC
SK-OV-3 ovarian = test system: SK-OV-3 ovarian
OVCAR-4 ovarian = test system: OVCAR-4 ovarian

## C=C(C)[C@@]1(O)O[C@H]2C[C@@]3(C)OC(=CC3=O)/C(C)=C\[C@@H]3OC(=O)[C@@]1(C)[C@H]32
SNB-19 CNS
  TGI: > 100 µM
RPMI-8226 leukemia
  TGI: > 58.1 µM
UACC-62 melanoma
  TGI: 35.7 µM
HCC-2998 colon
  TGI: 35.1 µM
HT29 colon
  TGI: 40.9 µM
LOX IMVI melanoma
  TGI: 29.2 µM
UACC-257 melanoma
  TGI: > 63.5 µM
OVCAR-8 ovarian
  TGI: > 100 µM
CCRF-CEM leukemia
  TGI: 24.1 µM
K-562 leukemia
  TGI: 35.4 µM
NCI/ADR-RES ovarian
  TGI: > 100 µM
SF-295 CNS
  TGI: 66.9 µM
MCF7 breast
  TGI: 29.1 µM
UO-31 renal
  TGI: 57 µM
NCI-H460 lung
  TGI: > 76.8 µM
SNB-75 CNS
  TGI: 68.3 µM
BT-549 breast
  TGI: 23.9 µM
HOP-92 NSCLC
  TGI: 41.3 µM
KM12 colon
  TGI: 32.5 µM
SW-620 colon
  TGI: 19.5 µM
MDA-MB-231 breast
  TGI: 43.9 µM
HOP-62 NSCLC
  TGI: > 100 µM
COLO 205 colon
  TGI: 35.3 µM
IGROV1 ovarian
  TGI: 24.9 µM
MDA-MB-435
  TGI: > 100 µM
M14 melanoma
  TGI: 37.5 µM
SK-MEL-2 melanoma
  TGI: > 56.3 µM
ACHN renal
  TGI: > 77.1 µM
SN12C renal
  TGI: 34.9 µM
786-0 renal
  TGI: 26.7 µM
MALME-3M melanoma
  TGI: > 100 µM
T-47D breast
  TGI: 59.2 µM
SK-MEL-28 melanoma
  TGI: 30.4 µM
RXF 393 renal
  TGI: 26.8 µM
SF-268 CNS
  TGI: 88.2 µM
HCT-116 colon
  TGI: 20.6 µM
HS 578T breast
  TGI: > 100 µM
TK-10 renal
  TGI: 42.1 µM
MOLT-4 leukemia
  TGI: 40.4 µM
EKVX NSCLC
  TGI: > 65.1 µM
SK-MEL-5 melanoma
  TGI: 30.5 µM
PC-3 prostate
  TGI: 78.4 µM
DU-145 prostate
  TGI: > 100 µM
NCI-H23 lung
  TGI: > 31.6 µM
NCI-H522 lung
  TGI: 15.6 µM
NCI-H226 lung
  TGI: 69.8 µM
U251 CNS
  TGI: 33.6 µM
HCT-15 colon
  TGI: 44 µM
SR leukemia
  TGI: > 64.4 µM
CAKI-1 renal
  TGI: 42.9 µM
HL-60(TB) leukemia
  TGI: > 47.2 µM
SF-539 CNS
  TGI: 56 µM
OVCAR-3 ovarian
  TGI: 34.2 µM
OVCAR-5 ovarian
  TGI: 19.7 µM
A549 NSCLC
  TGI: > 93.3 µM
SK-OV-3 ovarian
  TGI: > 100 µM
OVCAR-4 ovarian
  TGI: > 100 µM
